Legend:
Test in all cases: TR-FRET nuclear receptor binding assay
PPARα = target: T1, PPARα (Homo sapiens, UniProt Q07869)
T1 sequence (Q07869 1-468): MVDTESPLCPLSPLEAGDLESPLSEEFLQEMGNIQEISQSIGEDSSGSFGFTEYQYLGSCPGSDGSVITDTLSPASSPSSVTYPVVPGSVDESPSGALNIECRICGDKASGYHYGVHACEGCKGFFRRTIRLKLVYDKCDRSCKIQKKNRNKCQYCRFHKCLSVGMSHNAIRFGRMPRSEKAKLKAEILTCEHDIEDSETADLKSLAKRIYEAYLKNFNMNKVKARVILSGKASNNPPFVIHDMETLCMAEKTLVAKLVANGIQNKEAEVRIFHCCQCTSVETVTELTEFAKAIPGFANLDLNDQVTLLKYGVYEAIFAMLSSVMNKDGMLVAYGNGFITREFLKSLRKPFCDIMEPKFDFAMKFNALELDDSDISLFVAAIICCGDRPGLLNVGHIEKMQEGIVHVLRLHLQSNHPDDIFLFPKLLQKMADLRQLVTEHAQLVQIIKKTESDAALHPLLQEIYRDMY

PPARδ(β) = target: T2, PPARδ(β) (Homo sapiens, UniProt Q03181)
T2 sequence (Q03181 1-441): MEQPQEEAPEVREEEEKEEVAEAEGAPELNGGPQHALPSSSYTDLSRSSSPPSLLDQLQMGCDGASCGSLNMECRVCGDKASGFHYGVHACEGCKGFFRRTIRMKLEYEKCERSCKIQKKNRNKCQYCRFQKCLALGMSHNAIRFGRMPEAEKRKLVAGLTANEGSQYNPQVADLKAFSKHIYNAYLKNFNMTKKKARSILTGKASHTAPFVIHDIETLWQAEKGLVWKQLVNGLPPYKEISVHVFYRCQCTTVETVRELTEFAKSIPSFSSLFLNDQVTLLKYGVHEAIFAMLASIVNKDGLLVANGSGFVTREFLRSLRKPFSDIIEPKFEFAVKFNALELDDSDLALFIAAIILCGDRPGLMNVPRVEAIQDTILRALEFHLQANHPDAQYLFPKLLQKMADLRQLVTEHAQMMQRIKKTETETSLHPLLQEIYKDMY

PPARγ = target: T3, PPARγ (Homo sapiens, UniProt P37231)
T3 sequence (P37231 1-505): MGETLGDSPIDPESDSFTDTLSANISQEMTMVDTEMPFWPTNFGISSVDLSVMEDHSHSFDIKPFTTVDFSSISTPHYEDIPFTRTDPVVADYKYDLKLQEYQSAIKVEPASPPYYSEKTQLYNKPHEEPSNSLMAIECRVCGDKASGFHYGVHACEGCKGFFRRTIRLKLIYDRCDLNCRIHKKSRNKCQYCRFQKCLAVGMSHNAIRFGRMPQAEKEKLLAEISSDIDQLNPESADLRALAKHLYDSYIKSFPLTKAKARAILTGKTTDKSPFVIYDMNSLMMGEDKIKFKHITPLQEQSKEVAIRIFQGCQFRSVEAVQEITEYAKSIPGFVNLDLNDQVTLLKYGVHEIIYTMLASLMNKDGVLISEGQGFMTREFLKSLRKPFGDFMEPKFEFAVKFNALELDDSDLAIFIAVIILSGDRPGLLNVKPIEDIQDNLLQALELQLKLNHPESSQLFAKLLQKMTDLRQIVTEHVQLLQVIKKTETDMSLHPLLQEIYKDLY

Row | EC50 nuclear receptor binding PPARα (PPARα) | EC50 nuclear receptor binding PPARδ(β) (PPARδ(β)) | EC50 nuclear receptor binding PPARγ (PPARγ) | SMILES
1 | No binding | No binding | No binding | CC1=C(/C=C/C(C)=C/C=C/C(C)=C/C(=O)O)C(C)(C)CCC1 [ATRA, all-trans retinoic acid]
2 | No binding | No binding | No binding | CC1=C(/C=C/C(C)=C\C=C\C(C)=C\C(=O)O)C(C)(C)CCC1 [9-cis RA]
